Measurements: ChEMBL document CHEMBL1201862, “PubChem BioAssay data set” (2004)
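Step 1: Grow cells in 96-well plates. Step 2: Expose to compound for 48 hours at 5 concentrations. Step 3: Interpolate endpoints linearly; if unreached, use highest concentration. The concentration for 50% growth inhibition is given as GI50.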 Activity calls are given as the source filed them. Rule as the data show it: active = GI50 up to about 1.1 µM and inactive = higher.

Legend:
Test in all cases: NCI tumour cell line growth inhibition, 48 h
A549 = system: A549
SF-268 = system: SF-268
OVCAR-8 = system: OVCAR-8
NCI-H522 = system: NCI-H522
RPMI-8226 = system: RPMI-8226
Hs-578T = system: Hs-578T
BT-549 = system: BT-549
UACC-62 = system: UACC-62
UO-31 = system: UO-31
PC-3 = system: PC-3
SK-MEL-5 = system: SK-MEL-5
DU-145 = system: DU-145
T47D = system: T47D
SNB-75 = system: SNB-75
A498 = system: A498
CAKI-1 = system: CAKI-1
SF-295 = system: SF-295
HCT-15 = system: HCT-15
SW-620 = system: SW-620
SK-MEL-28 = system: SK-MEL-28
786-0 = system: 786-0
MCF7 = system: MCF7
SR = system: SR
HCC 2998 = system: HCC 2998
NCI-H460 = system: NCI-H460
U-251 = system: U-251
HOP-92 = system: HOP-92
OVCAR-4 = system: OVCAR-4
ACHN = system: ACHN
HOP-62 = system: HOP-62
MDA-N = system: MDA-N
MDA-MB-231 = system: MDA-MB-231
SK-OV-3 = system: SK-OV-3
TK-10 = system: TK-10
Malme-3M = system: Malme-3M
OVCAR-3 = system: OVCAR-3
MDA-MB-435 = system: MDA-MB-435
SNB-19 = system: SNB-19
COLO 205 = system: COLO 205
HCT-116 = system: HCT-116
UACC-257 = system: UACC-257
OVCAR-5 = system: OVCAR-5
M14 = system: M14
IGROV-1 = system: IGROV-1
HT-29 = system: HT-29
NCI-H226 = system: NCI-H226
NCI-H23 = system: NCI-H23
MOLT-4 = system: MOLT-4
SF-539 = system: SF-539
KM12 = system: KM12
EKVX = system: EKVX
HL-60 = system: HL-60
SN12C = system: SN12C
SK-MEL-2 = system: SK-MEL-2
NCI/ADR-RES = system: NCI/ADR-RES
LOX IMVI = system: LOX IMVI
K562 = system: K562
CCRF-CEM = system: CCRF-CEM
RXF 393 = system: RXF 393

Cc1ccc(OC2CC(n3cnc4ncnc(Cl)c43)OC2Oc2ccc(C)cc2)cc1 (centres undefined)
GI50 (A549): 25.2 µM (inactive)
GI50 (SF-268): 18.7 µM (inactive)
GI50 (OVCAR-8): 8.32 µM (inactive)
GI50 (NCI-H522): 5.36 µM (inactive)
GI50 (RPMI-8226): 2.81 µM (inactive)
GI50 (Hs-578T): 21.8 µM (inactive)
GI50 (BT-549): 25.4 µM (inactive)
GI50 (UACC-62): 14.1 µM (inactive)
GI50 (UO-31): 11.1 µM (inactive)
GI50 (PC-3): 16.4 µM (inactive)
GI50 (SK-MEL-5): 18.5 µM (inactive)
GI50 (DU-145): 15.7 µM (inactive)
GI50 (T47D): 12.6 µM (inactive)
GI50 (SNB-75): 15.6 µM (inactive)
GI50 (A498): 45.6 µM (inactive)
GI50 (CAKI-1): 2.11 µM (inactive)
GI50 (SF-295): 21.1 µM (inactive)
GI50 (HCT-15): 13.8 µM
GI50 (SW-620): 48.5 µM (inactive)
GI50 (SK-MEL-28): > 100 µM (inactive)
GI50 (786-0): > 100 µM (inactive)
GI50 (MCF7): 5.96 µM (inactive)
GI50 (SR): 2.48 µM (inactive)
GI50 (HCC 2998): 8.04 µM (inactive)
GI50 (NCI-H460): 12.7 µM (inactive)
GI50 (U-251): 36.1 µM (inactive)
GI50 (HOP-92): 8.77 µM (inactive)
GI50 (OVCAR-4): 27.9 µM (inactive)
GI50 (ACHN): 2.59 µM (inactive)
GI50 (HOP-62): 27.3 µM (inactive)
GI50 (MDA-N): 22.4 µM (inactive)
GI50 (MDA-MB-231): 17.5 µM (inactive)
GI50 (SK-OV-3): > 100 µM (inactive)
GI50 (TK-10): > 100 µM (inactive)
GI50 (Malme-3M): 40.5 µM (inactive)
GI50 (OVCAR-3): 14.6 µM (inactive)
GI50 (MDA-MB-435): 39.1 µM (inactive)
GI50 (SNB-19): 16.1 µM (inactive)
GI50 (COLO 205): 14.8 µM (inactive)
GI50 (HCT-116): 9.77 µM (inactive)
GI50 (UACC-257): 44.8 µM (inactive)
GI50 (OVCAR-5): 22 µM (inactive)
GI50 (M14): 18.1 µM (inactive)
GI50 (IGROV-1): 17 µM (inactive)
GI50 (HT-29): 16.9 µM (inactive)
GI50 (NCI-H226): 13.7 µM (inactive)
GI50 (NCI-H23): 24.8 µM (inactive)
GI50 (MOLT-4): 4.49 µM (inactive)
GI50 (SF-539): 7.78 µM (inactive)
GI50 (KM12): 18.4 µM (inactive)
GI50 (EKVX): 33.3 µM (inactive)
GI50 (HL-60): 3.77 µM (inactive)
GI50 (SN12C): 29.6 µM (inactive)
GI50 (SK-MEL-2): 13.6 µM (inactive)
GI50 (NCI/ADR-RES): 18.8 µM (inactive)
GI50 (LOX IMVI): 5.51 µM (inactive)

C/C(=N\NC(=S)NCc1ccccc1)c1nc2cccnc2[nH]1
GI50 (A549): 6.38 µM (inactive)
GI50 (SF-268): 4.62 µM (inactive)
GI50 (OVCAR-8): 10.1 µM (inactive)
GI50 (NCI-H522): 15.1 µM (inactive)
GI50 (RPMI-8226): 11.5 µM (inactive)
GI50 (Hs-578T): 18.3 µM (inactive)
GI50 (BT-549): 6.12 µM (inactive)
GI50 (UACC-62): 6.53 µM (inactive)
GI50 (UO-31): 1.94 µM (inactive)
GI50 (PC-3): 8.95 µM (inactive)
GI50 (SK-MEL-5): 3.57 µM (inactive)
GI50 (DU-145): 4.84 µM (inactive)
GI50 (T47D): 9.1 µM (inactive)
GI50 (SNB-75): 20.2 µM (inactive)
GI50 (A498): 17.3 µM (inactive)
GI50 (CAKI-1): 6.52 µM (inactive)
GI50 (SF-295): 6.41 µM (inactive)
GI50 (HCT-15): 4.45 µM
GI50 (SW-620): 9.66 µM (inactive)
GI50 (SK-MEL-28): 14.6 µM (inactive)
GI50 (786-0): 6.92 µM (inactive)
GI50 (MCF7): 3.53 µM (inactive)
GI50 (SR): 4.62 µM (inactive)
GI50 (HCC 2998): 20.1 µM (inactive)
GI50 (NCI-H460): 4.29 µM (inactive)
GI50 (U-251): 5.3 µM (inactive)
GI50 (HOP-92): 4.37 µM (inactive)
GI50 (OVCAR-4): 16.4 µM (inactive)
GI50 (ACHN): 3.57 µM (inactive)
GI50 (HOP-62): 6.85 µM (inactive)
GI50 (K562): 5.35 µM (inactive)
GI50 (MDA-N): 11.3 µM (inactive)
GI50 (MDA-MB-231): 17.3 µM (inactive)
GI50 (SK-OV-3): 10.4 µM (inactive)
GI50 (TK-10): 15.2 µM (inactive)
GI50 (Malme-3M): 13.4 µM (inactive)
GI50 (OVCAR-3): 11.1 µM (inactive)
GI50 (MDA-MB-435): 12.4 µM (inactive)
GI50 (SNB-19): 6.49 µM (inactive)
GI50 (COLO 205): 14.5 µM (inactive)
GI50 (HCT-116): 3.69 µM (inactive)
GI50 (UACC-257): 9.62 µM (inactive)
GI50 (OVCAR-5): 7.23 µM (inactive)
GI50 (M14): 6.01 µM (inactive)
GI50 (IGROV-1): 8 µM (inactive)
GI50 (HT-29): 3.48 µM (inactive)
GI50 (NCI-H226): 4.44 µM (inactive)
GI50 (NCI-H23): 12.8 µM (inactive)
GI50 (MOLT-4): 3.44 µM (inactive)
GI50 (SF-539): 5.73 µM (inactive)
GI50 (CCRF-CEM): 3.27 µM (inactive)
GI50 (KM12): 6.34 µM (inactive)
GI50 (EKVX): 2.88 µM (inactive)
GI50 (HL-60): 3.71 µM (inactive)
GI50 (SN12C): 15.7 µM (inactive)
GI50 (SK-MEL-2): 13.1 µM (inactive)
GI50 (NCI/ADR-RES): 9.98 µM (inactive)
GI50 (LOX IMVI): 6.12 µM (inactive)

CCOc1cc(C2CC(c3ccc(NS(=O)(=O)c4cc([N+](=O)[O-])ccc4C)cc3)=NN2S(=O)(=O)c2cc([N+](=O)[O-])ccc2C)ccc1O (centres undefined)
GI50 (A549): 32.4 µM (inactive)
GI50 (SF-268): 39.7 µM (inactive)
GI50 (OVCAR-8): 42.8 µM (inactive)
GI50 (NCI-H522): 22.9 µM (inactive)
GI50 (RPMI-8226): 34.3 µM (inactive)
GI50 (Hs-578T): 42.4 µM (inactive)
GI50 (BT-549): 39.4 µM (inactive)
GI50 (UO-31): 32.6 µM (inactive)
GI50 (PC-3): 32.7 µM (inactive)
GI50 (SK-MEL-5): 18.5 µM (inactive)
GI50 (DU-145): 43.8 µM (inactive)
GI50 (T47D): 19.8 µM (inactive)
GI50 (A498): 2.44 µM (inactive)
GI50 (CAKI-1): 42.9 µM (inactive)
GI50 (SF-295): 31.9 µM (inactive)
GI50 (HCT-15): 39 µM
GI50 (SW-620): 64.7 µM (inactive)
GI50 (SK-MEL-28): 83 µM (inactive)
GI50 (786-0): 33.3 µM (inactive)
GI50 (MCF7): 31.9 µM (inactive)
GI50 (SR): 32.4 µM (inactive)
GI50 (U-251): 30.7 µM (inactive)
GI50 (HOP-92): 17.5 µM (inactive)
GI50 (OVCAR-4): 38.6 µM (inactive)
GI50 (ACHN): 39.6 µM (inactive)
GI50 (HOP-62): 30.8 µM (inactive)
GI50 (K562): 35.1 µM (inactive)
GI50 (MDA-N): 43.3 µM (inactive)
GI50 (MDA-MB-231): 32.1 µM (inactive)
GI50 (SK-OV-3): 39.9 µM (inactive)
GI50 (TK-10): 36.4 µM (inactive)
GI50 (Malme-3M): 23.3 µM (inactive)
GI50 (OVCAR-3): 23.4 µM (inactive)
GI50 (MDA-MB-435): 38.4 µM (inactive)
GI50 (SNB-19): 43.6 µM (inactive)
GI50 (COLO 205): 37.4 µM (inactive)
GI50 (HCT-116): 36.5 µM (inactive)
GI50 (UACC-257): 32.7 µM (inactive)
GI50 (OVCAR-5): > 100 µM (inactive)
GI50 (M14): 34.1 µM (inactive)
GI50 (IGROV-1): 18.5 µM (inactive)
GI50 (HT-29): 49.3 µM (inactive)
GI50 (NCI-H226): 31.6 µM (inactive)
GI50 (NCI-H23): 30.6 µM (inactive)
GI50 (MOLT-4): 30.4 µM (inactive)
GI50 (SF-539): 33.7 µM (inactive)
GI50 (CCRF-CEM): 33 µM (inactive)
GI50 (KM12): 41.1 µM (inactive)
GI50 (EKVX): 22.1 µM (inactive)
GI50 (HL-60): 38.5 µM (inactive)
GI50 (SN12C): 28.4 µM (inactive)
GI50 (SK-MEL-2): 22.6 µM (inactive)
GI50 (RXF 393): 29 µM (inactive)
GI50 (NCI/ADR-RES): 39.4 µM (inactive)
GI50 (LOX IMVI): 40.1 µM (inactive)
